The results in this text go back to patent publication US20090076012A1, “Modulation of pathogenicity” (priority 2002, published 2009).

In this test the test system is bioluminescent sensor strain Escherichia coli MT102 (pSB403). Kind of test: Biosensor assay: quorum sensing inhibition, bioluminescence of the sensor strain. It counts as cell-based. To be noted: Escherichia coli, 4 h, 3oxo-C6-HSL 100 nM; bioluminescence after 4 hours at 30° C. The procedure, abridged: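 E. coli MT102 (pSB403) luxR/luxI-promoter–luxCDABE sensor, exponential culture in LB stimulated with 100 nM 3oxo-C6-HSL. Compounds added at eight concentrations; bioluminescence read after 4 h at 30° C. IC50 fitted from light reduction relative to no-inhibitor signal.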

pIC50: −log10 of the molar value.

Take `CCCCCCC(=O)CC(=O)Nn1cccn1` [Compound 120, 3-Oxo-nonanoic acid pyrazol-1-ylamide]: the pIC50 was < 4.00.

As for `Cn1nc(C(C)(C)C)cc1C(=O)NNC(=O)c1cccs1` [Compound 70, Thiophene-2-carboxylic acid N′-(5-tert-butyl-2-methyl-2H-pyrazole-3-carbonyl)-hydrazide], the pIC50 is < 4.00.

As for `COC(=O)c1scc(C)c1NC(=O)c1cccs1` [Compound 5, 4-Methyl-3-[(thiophene-2-carbonyl)-amino]-thiophene-2-carboxylic acid methyl ester], the pIC50 was < 4.00.

As to `COc1c(C(=O)NNC(=O)c2ccco2)csc1Cl` [Compound 38, Furan-2-carboxylic acid N′-(5-chloro-4-methoxy-thiophene-3-carbonyl)-hydrazide], the pIC50 was 4.30 to 6.00.

`Cc1cc(C(=O)Nc2ccnn2C)n(C(C)(C)C)n1` [Compound 13, 2-tert-Butyl-5-methyl-2H-pyrazole-3-carboxylic acid (2-methyl-2H-pyrazol-3-yl)-amide]: the pIC50 was < 4.00.

Regarding `CCCCCCC(=O)CC(=O)Nc1scc(C)c1C(=O)OCC` [Compound 123, 4-Methyl-2-(3-oxo-nonanoylamino)-thiophene-3-carboxylic acid ethyl ester], the pIC50 is < 4.00.

The compound `CCCCCCC(=O)Nc1c(Br)cnn1C` [Compound 21] had a pIC50 of 4.30 to 6.00.

`O=C(NNC(=O)c1sccc1Cl)c1cccs1` [Compound 51, 3-Chloro-thiophene-2-carboxylic acid N′-(thiophene-2-carbonyl)-hydrazide] had a pIC50 of 4.00 to 4.30.

For `CCCCCNC(=O)NNC(=O)c1cc(Br)c(Br)s1` [Compound 101, 1-(4,5-Dibromo-thiophene-2-carbonyl)-4-pentyl-semicarbazide], the pIC50 is < 4.00.

`CCCCCCC(=O)Nc1ccnn1C` [Compound 24, Heptanoic acid (2-methyl-2H-pyrazol-3-yl)-amide] showed a pIC50 of 4.30 to 6.00.

For `CCCC(=O)NNC(=O)c1cccs1` [Compound 75, Thiophene-2-carboxylic acid N′-butyryl-hydrazide], the pIC50 is 4.30 to 6.00.

`Cn1nc(-c2cccs2)cc1NC(=O)CCCCCBr` [Compound 20, 6-Bromo-hexanoic acid (2-methyl-5-thiophen-2-yl-2H-pyrazol-3-yl)-amide] had a pIC50 of 4.30 to 6.00.

`CCCC(=O)NNC(=O)c1ccc(C)s1` [Compound 76, 5-Methyl-thiophene-2-carboxylic acid N′-butyryl-hydrazide] had a pIC50 of 4.00 to 4.30.

Turning to `CCn1nc(C)c(Br)c1C(=O)NNC(=O)c1scc(C)c1Cl` [Compound 72, 4-Bromo-2-ethyl-5-methyl-2H-pyrazole-3-carboxylic acid N′-(3-chloro-4-methylthiophene-2-carbonyl)-hydrazide], the pIC50 was < 4.00.

`O=C(NNC(=O)c1cccs1)c1cccs1` [Compound 46, Thiophene-2-carboxylic acid N′-(thiophene-2-carbonyl)-hydrazide] gave a pIC50 of 4.00 to 4.30.

In the case of `O=C(NNC(=O)c1cnn(-c2ccc(Cl)cc2)c1C(F)(F)F)c1cccs1` [Compound 34, Thio-phene-2-carboxylic acid N′-[1-(4-chloro-phenyl)-5-trifluoromethyl-1H-pyrazole-4-carbonyl]-hydrazide], the pIC50 is 4.00 to 4.30.

As to `Cn1ncc(Br)c1NC(=O)CCCCCBr` [Compound 23, 6-Bromo-hexanoic acid (4-bromo-2-methyl-2H-pyrazol-3-yl)-amide], the negative logarithm of the IC50 (pIC50) was 4.30 to 6.00.

With `CCCCCCCCCC(=O)CC(=O)Nc1cc(C)ns1` [Compound 126, 3-Oxo-dodecanoic acid (3-methyl-isothiazol-5-yl)-amide], the pIC50 was < 4.00.

Take `CCCCCCCCCC(=O)CC(=O)Nc1ccnn1CC` [Compound 117, 3-Oxo-dodecanoic acid (2-ethyl-2H-pyrazol-3-yl)-amide]: the pIC50 was < 4.00.

`CCOC(=O)CC(=O)NNC(=O)c1sccc1Br` [Compound 95] had a pIC50 of 4.30 to 6.00.

`CCCCCCC(=O)NNC(=O)c1ccc(Br)s1` [Compound 84, 5-Bromo-thiophene-2-carboxylic acid N′-heptanoyl-hydrazide] showed a pIC50 of 4.30 to 6.00.

Turning to `O=C(Nc1ccc(OC(F)(F)F)cc1)c1cnc(Cl)nc1C(F)(F)F` [Compound 7, 2-Chloro-4-trifluoromethyl-pyrimidine-5-carboxylic acid (4-trifluoromethoxy-phenyl)-amide], the pIC50 is 4.30 to 6.00.

As to `CCCCCCC(=O)CC(=O)Nc1ccnn1CC` [Compound 116, 3-Oxo-nonanoic acid (2-ethyl-2H-pyrazol-3-yl)-amide], the pIC50 is < 4.00.

Compound `COc1ccc(NC(=O)c2sccc2Br)cn1` [Compound 2, 3-Bromo-thiophene-2-carboxylic acid (6-methoxy-pyridin-3-yl)-amide] had a pIC50 of 4.30 to 6.00.

Turning to `COc1ccc(NC(=O)c2cncc(Br)c2)cn1` [Compound 9, 5-Bromo-N-(6-methoxy-pyridin-3-yl)-nicotinamide], the pIC50 was < 4.00.

Compound `CCCCCCCC(=O)NNC(=O)c1c(Br)c(C)nn1CC` [Compound 92, 4-Bromo-2-ethyl-5-methyl-2H-pyrazole-3-carboxylic acid N′-octanoyl-hydrazide] gave a pIC50 of 4.00 to 4.30.

As for `O=C(NNC(=O)c1sccc1Cl)c1ccc(Cl)s1` [Compound 58, 3-Chloro-thiophene-2-carboxylic acid N′-(5-chloro-thiophene-2-carbonyl)-hydrazide], the pIC50 was 4.00 to 4.30.

For the compound `CCCC(=O)NNS(=O)(=O)c1ccc(Cl)s1` [Compound 98, Butyric acid N′-(5-chloro-thiophen-2-sulfonyl)-hydrazide], the pIC50 is 4.00 to 4.30.

For `CCCCCCC(=O)Nc1cc(-c2ccccc2)nn1C` [Compound 17, Heptanoic acid (2-methyl-5-phenyl-2H-pyrazol-3-yl)-amide], the pIC50 is 4.30 to 6.00.

Take `O=C(Nc1ccc(Br)cn1)c1cc(Cl)nc(Cl)c1` [Compound 10]: the pIC50 was < 4.00.

As for `O=C(NNC(=O)c1cccs1)c1ccc(OC(F)(F)F)cc1` [Compound 29, 4-Trifluoromethoxy-benzoic acid N′-(thiophene-2-carbonyl)-hydrazide], the pIC50 was < 4.00.
